Tests used:
Assay in all cases: relative viability (nuclei count vs DMSO), 5 days (fraction); higher = more cells survive
Etoposide + Pemetrexed = compound: COc1cc([C@@H]2c3cc4c(cc3[C@@H](O[C@@H]3O[C@@H]5CO[C@@H](C)O[C@H]5[C@H](O)[C@H]3O)[C@H]3COC(=O)[C@H]23)OCO4)cc(OC)c1O [Etoposide] + Nc1nc2[nH]cc(CCc3ccc(C(=O)N[C@@H](CCC(=O)O)C(=O)O)cc3)c2c(=O)[nH]1 [Pemetrexed] (partner 0.2 µM)
Outline: (§1)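 The day after seeding in 1536-well plates, lung cancer cell lines were treated by pin tool with a single drug, or with a fixed anchor-drug dose together with five library-drug doses (not always all listed) in √10 steps. After 5 days, a combined fix-and-stain solution (final 0.05% Triton X-100, 1% formaldehyde, 1 ug/ml Hoechst) was added. Nuclei counted on 4× images gave relative viability as treated counts over vehicle counts, reported as the median of duplicate plates.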

Bleomycin + Navitoclax = compound: CC1=C(N=C(N=C1N)[C@H](CC(=O)N)NC[C@@H](C(=O)N)N)C(=O)N[C@@H]([C@H](C2=CN=CN2)OC3C(C(C(C(O3)CO)O)O)OC4C(C(C(C(O4)CO)O)OC(=O)N)O)C(=O)N[C@H](C)[C@H]([C@H](C)C(=O)N[C@@H]([C@@H](C)O)C(=O)NCCC5=NC(=CS5)C6=NC(=CS6)C(=O)NCCC[S+](C)C)O [Bleomycin] + CC1(C)CCC(c2ccc(Cl)cc2)=C(CN2CCN(c3ccc(C(=O)NS(=O)(=O)c4ccc(N[C@H](CCN5CCOCC5)CSc5ccccc5)c(S(=O)(=O)C(F)(F)F)c4)cc3)CC2)C1 [Navitoclax] (partner 0.5 µM); conditions: main component drawn
Outline: as §1

Etoposide + Alpelisib = compound: COc1cc([C@@H]2c3cc4c(cc3[C@@H](O[C@@H]3O[C@@H]5CO[C@@H](C)O[C@H]5[C@H](O)[C@H]3O)[C@H]3COC(=O)[C@H]23)OCO4)cc(OC)c1O [Etoposide] + Cc1nc(NC(=O)N2CCC[C@H]2C(N)=O)sc1-c1ccnc(C(C)(C)C(F)(F)F)c1 [Alpelisib] (partner 2 µM)
Outline: as §1

Bleomycin + Phenformin = compound: CC1=C(N=C(N=C1N)[C@H](CC(=O)N)NC[C@@H](C(=O)N)N)C(=O)N[C@@H]([C@H](C2=CN=CN2)OC3C(C(C(C(O3)CO)O)O)OC4C(C(C(C(O4)CO)O)OC(=O)N)O)C(=O)N[C@H](C)[C@H]([C@H](C)C(=O)N[C@@H]([C@@H](C)O)C(=O)NCCC5=NC(=CS5)C6=NC(=CS6)C(=O)NCCC[S+](C)C)O [Bleomycin] + N=C(N)NC(=N)NCCc1ccccc1 [Phenformin] (partner 250 µM); conditions: main component drawn
Outline: as §1

Cell Line: UMC-11
- relative viability (Etoposide + Pemetrexed; first compound 0.01 µM): 0.809
- relative viability (Etoposide + Pemetrexed; first compound 0.03162 µM): 0.789
- relative viability (Etoposide + Pemetrexed; first compound 0.1 µM): 0.768
- relative viability (Etoposide + Pemetrexed; first compound 0.3162 µM): 0.53
- relative viability (Etoposide + Pemetrexed; first compound 1 µM): 0.313
- relative viability (Bleomycin + Navitoclax; first compound 0.01 µM): 0.376
- relative viability (Bleomycin + Navitoclax; first compound 0.03162 µM): 0.264
- relative viability (Bleomycin + Navitoclax; first compound 0.1 µM): 0.286
- relative viability (Bleomycin + Navitoclax; first compound 0.3162 µM): 0.22
- relative viability (Bleomycin + Navitoclax; first compound 1 µM): 0.205
- relative viability (Etoposide + Alpelisib; first compound 0.01 µM): 0.943
- relative viability (Etoposide + Alpelisib; first compound 0.03162 µM): 1.11
- relative viability (Etoposide + Alpelisib; first compound 0.3162 µM): 0.352
- relative viability (Etoposide + Alpelisib; first compound 1 µM): 0.222
- relative viability (Bleomycin + Phenformin; first compound 0.01 µM): 0.311
- relative viability (Bleomycin + Phenformin; first compound 0.03162 µM): 0.335
- relative viability (Bleomycin + Phenformin; first compound 0.1 µM): 0.29
- relative viability (Bleomycin + Phenformin; first compound 0.3162 µM): 0.283
- relative viability (Bleomycin + Phenformin; first compound 1 µM): 0.233
